Results reported in patent publication US8987235B2, “N-cyclopropyl-(20R)-2-methylene-19,26,27-trinor-25-aza-vitamin D analogs and their uses” (Wisconsin Alumni Research Foundation, priority 2011, dated 2015).
“Also recorded” adds a separate entry of the source.

Tests used:
vitamin D-deficient rats [1] = assay: Bone calcium mobilization (serum calcium); assay type: in vivo, Sprague-Dawley rats
Text: Intestinal Calcium Transport and Bone Calcium Mobilization
Male, weanling Sprague-Dawley rats were placed on Diet 11 (Suda et al, J. Nutr. 100:1049, 1970) (0.47% Ca)+vitamins AEK for one week followed by Diet 11 (0.02% Ca)+vitamins AEK for 3 weeks. The rats were then switched to the same diet containing 0.47% Ca for one week followed by two weeks on the same diet containing 0.02% Ca. Dose administration began during the last week on 0.02% calcium diet. Four consecutive ip doses were given approximately 24 hours apart. Twenty-four hours after the last dose, blood was collected from the severed neck and the concentration of serum calcium determined by atomic absorption spectrometry as a measure of bone calcium mobilization. The first 10 cm of the intestine was also collected for intestinal calcium transport analysis using the everted gut sac method.

[2] = test system: 24-hydroxylase (24 Ohase) gene promoter in ROS 17/2.8 (bone) cells; assay: In vitro transcription assay (24-hydroxylase promoter luciferase reporter); assay type: cell-based; settings: for EC50: ROS 17/2.8 cells, 24-hydroxylase promoter luciferase, 16 h, FIG. 3, read-out: EC50, transcriptional activity in bone cells
Method: In Vitro Transcription Assay Transcription activity was measured in ROS 17/2.8 (bone) cells that were stably transfected with a 24-hydroxylase (24 Ohase) gene promoter upstream of a luciferase reporter gene (Arbour et al., 1998). Cells were given a range of doses. Sixteen hours after dosing the cells were harvested and luciferase activities were measured using a luminometer. RLU=relative luciferase units.

[3] = test system: Human promyelocytic leukemia (HL60) cells; assay: HL-60 differentiation (nitro blue tetrazolium reduction); assay type: cell-based; settings: four days, FIG. 2
Method: The study drugs were dissolved in ethanol and the concentrations determined using UV spectrophotometry. Serial dilutions were prepared so that a range of drug concentrations could be tested without changing the final concentration of ethanol (≦0.2%) present in the cell cultures.
Human promyelocytic leukemia (HL60) cells were grown in RPMI-1640 medium containing 10% fetal bovine serum. The cells were incubated at 37° C. in the presence of 5% CO2.
HL60 cells were plated at 1.2×10^5 cells/ml. Eighteen hours after plating, cells in duplicate were treated with drug. Four days later, the cells were harvested and a nitro blue tetrazolium reduction assay was performed (Collins et al., 1979; J. Exp. Med. 149:969-974). The percentage of differentiated cells was determined by counting a total of 200 cells and recording the number that contained intracellular black-blue formazan deposits. Verification of differentiation to monocytic cells was determined by measuring phagocytic activity (data not shown).

vitamin D-deficient rats [4] = assay: Intestinal calcium transport (everted gut sac method); assay type: in vivo, Sprague-Dawley rats; settings: low calcium diet, 4 ip doses, relative to 1,25(OH)2D3, FIG. 5
Text: Dose administration began during the last week on 0.02% calcium diet. […] The first 10 cm of the intestine was also collected for intestinal calcium transport analysis using the everted gut sac method.

[5] = molecular target: T1, full-length recombinant rat vitamin D receptor (Rattus norvegicus, UniProt P13053); assay: biochemical
T1 sequence (P13053 1-423): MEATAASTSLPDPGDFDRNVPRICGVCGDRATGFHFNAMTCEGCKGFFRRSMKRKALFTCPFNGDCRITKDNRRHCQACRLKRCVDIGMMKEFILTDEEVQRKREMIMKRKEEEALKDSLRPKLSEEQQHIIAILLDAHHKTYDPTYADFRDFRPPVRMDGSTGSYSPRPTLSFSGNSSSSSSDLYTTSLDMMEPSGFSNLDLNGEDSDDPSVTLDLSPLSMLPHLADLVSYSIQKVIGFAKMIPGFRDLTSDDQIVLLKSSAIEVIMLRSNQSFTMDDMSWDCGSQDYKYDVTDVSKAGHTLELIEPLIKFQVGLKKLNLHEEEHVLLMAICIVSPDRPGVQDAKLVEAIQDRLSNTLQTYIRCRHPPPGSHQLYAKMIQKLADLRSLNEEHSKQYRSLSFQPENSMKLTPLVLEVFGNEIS

Ki [5]	EC50 ([3]; Homo sapiens, HL-60, 96 h)	SMILES	serum calcium levels (in words) (vitamin D-deficient rats [1]; 87 pmol and 780 pmol dosages, rats on 0.02% Ca diet, listed as 1,25(OH)2D3)	EC50 [2]	EC50 [3]	times less potent than 1,25(OH)2D3 in promoting intestinal calcium transport (vitamin D-deficient rats [4])	times less potent than 1,25(OH)2D3 in releasing bone calcium stores (vitamin D-deficient rats [1]; rats, low calcium diet, 4 ip doses, relative to 1,25(OH)2D3, FIG. 4)	times less potent than 1,25(OH)2D3 in increasing transcription of the 24-hydroxylase gene ([2]; bone cells, relative to 1,25(OH)2D3)
–	–	C=C1/C(=C\C=C2/CCC[C@]3(C)[C@@H]([C@H](C)CCCC(C)(C)O)CC[C@@H]23)C[C@@H](O)C[C@@H]1O [1α,25-dihydroxyvitamin D3, reference compound]	increased serum calcium levels; also recorded: significant increases in serum calcium	0.2 nM	2 nM	–	–	–
3 nM	3 nM	C=C1[C@H](O)CC(=C/C=C2\CCC[C@]3(C)[C@@H]([C@H](C)CCCNC4CC4)CC[C@@H]23)C[C@H]1O [CPA-1, N-cyclopropyl-(20R)-2-methylene-19,26,27-trinor-25-aza-1α-hydroxyvitamin D3]	–	3 nM	–	about 20 times	about 400 times	about 10 times
